Experimental data reported in patent US12233161B1, “Lipids and lipid nanoparticle formulations” (LONGUIDE BIOPHARMA CORPORATION, priority 2024, dated 2025).

How the values were obtained:
[1] = Particle size and PDI of nucleic acid lipid nanoparticle preparations by dynamic light scattering; format: physicochemical
Summary of the method: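 Size read by DLS after diluting the LNP preparation (approx. 0.04 mg/mL mRNA) in ultrapure water with gentle pipette mixing. The same sample, recovered and diluted further with water, was then used for zeta potential measurement.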

[2] = Potential characterization of nucleic acid lipid nanoparticle preparations; format: physicochemical
Summary of the method: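 Zeta potential was read on a Malvern ZEN3700 after diluting 20 μL lipid nanoparticle solution (about 0.04 mg/mL mRNA) into 780 μL ultrapure water. Alternatively, a 27.5 μL sample in 200 μL water was first sized by dynamic light scattering, then diluted with 600 μL more water for potential measurement.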

mice [3] = test: In vivo delivery of FLuc-mRNA lipid nanoparticles in mice, in vivo imaging (IVIS)
Summary of the method: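 Mice (n=3) received about 75 μL FLuc-mRNA LNP per mouse intramuscularly (rectus femoris), intravenously (tail vein), intraperitoneally or subcutaneously (back). After injection, D-luciferin (200 μL, 15 mg/mL) was given i.p. 10-15 min before IVIS imaging.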

mice [4] = test: In vivo delivery of FLuc-circ-RNA lipid nanoparticles in mice; details: Fluc-circ-RNA LNP; for % of organ targeting: IV
Procedure: Lipid nanoparticles loaded with nucleic acid drugs were prepared according to step 2, replacing FLuc-mRNA with FLuc-circ-RNA (Hongene Biotech Corporation, Shanghai). After formulation, the nanoparticles were administered via intramuscular injection (into the quadriceps femoris muscle of mice), intravenous injection (into the tail vein of mice), intraperitoneal injection, or subcutaneous injection (subcutaneously on the back). Approximately 75 μL was injected per mouse, with a total of 3 mice per group. In vivo imaging (PerkinElmer, IVIS Lumina III) was performed after a certain period of time. Ten to fifteen minutes before imaging, 200 μL of a 15 mg/mL D-Luciferin working solution was injected intraperitoneally, followed by imaging analysis using the in vivo imaging system.

[5] = DMG-PEG2000:DOPE:Chol:compound 1.40:11.15:38.95:48.50, N/P 30
[6] = DMG-PEG2000:DSPC:Chol:compound 1.00:11.50:27.50:60.00, N/P 30
[7] = Fluc-circ-RNA LNP, preparation given IV
[8] = DMG-PEG2000:DSPC:Chol:Lipid 1.40:11.15:38.95:48.50, N/P 30, mRNA LNP
[9] = DMG-PEG2000:DSPC:Chol:Lipid 4.00:8.00:58.00:30.00, N/P 36, mRNA LNP
[10] = DMG-PEG2000:DSPC:Chol:compound 1.00:10.00:33.00:56.00, N/P 48
[11] = DMG-PEG2000:DSPC:Chol:Lipid 1.40:11.15:38.95:48.50, N/P 30, IV, liver
[12] = DMG-PEG2000:DSPC:Chol:Lipid 1.40:11.15:38.95:48.50, N/P 30, IV, lung
[13] = DMG-PEG2000:DSPC:Chol:Lipid 1.40:11.15:38.95:48.50, N/P 30, IV, spleen
[14] = DMG-PEG2000:DSPC:Chol:Lipid 4.00:8.00:58.00:30.00, N/P 36, IV, liver
[15] = DMG-PEG2000:DSPC:Chol:Lipid 4.00:8.00:58.00:30.00, N/P 36, IV, lung
[16] = DMG-PEG2000:DSPC:Chol:Lipid 4.00:8.00:58.00:30.00, N/P 36, IV, spleen
[17] = DMG-PEG2000:DSPC:Chol:compound 1.00:10.00:33.00:56.00, N/P 42
[18] = Fluc-circ-RNA LNP, preparation given IM
[19] = N/P 30, formulation cells blank (line above: DMG-PEG2000:DSPC:Chol:compound 1.00:10.00:33.00:56.00)

## [2H]C([2H])([2H])[N+](CCCN(CC(O)C(=O)NCCCCCCCCCCCC)CC(O)C(=O)NCCCCCCCCCCCC)(CCCN(CC(O)C(=O)NCCCCCCCCCCCC)CC(O)C(=O)NCCCCCCCCCCCC)C([2H])([2H])[2H] (stereo not shown) [Compound L0346]
[1]; [5]
  PDI: 0.38
  Particle size (nm): 78.75 nm
[1]; [6]
  PDI: 0.23
  Particle size (nm): 157.00 nm
[1]; [7]
  PDI: 0.24
  Particle size (nm): 161.2 nm
[2]; [7]
  Zeta potential (mV): 14.23 mV
Mice [3]; IM, DMG-PEG2000:DOPE:Chol:compound 1.40:11.15:38.95:48.50, N/P 30, Fluc-mRNA
  IVIS: 3.49E+05
Mice [3]; IV, body, DMG-PEG2000:DOPE:Chol:compound 1.40:11.15:38.95:48.50, N/P 30, Fluc-mRNA
  IVIS: 1.95E+08
Mice [3]; IV, body, DMG-PEG2000:DSPC:Chol:compound 1.00:11.50:27.50:60.00, N/P 30, Fluc-mRNA
  IVIS: 3.93E+08
Mice [3]; IV, liver, DMG-PEG2000:DOPE:Chol:compound 1.40:11.15:38.95:48.50, N/P 30
  % of organ targeting: 0.84%
Mice [3]; IV, liver, DMG-PEG2000:DOPE:Chol:compound 1.40:11.15:38.95:48.50, N/P 30, Fluc-mRNA
  IVIS: 2.65E+06
Mice [3]; IV, liver, DMG-PEG2000:DSPC:Chol:compound 1.00:11.50:27.50:60.00, N/P 30
  % of organ targeting: 0.56%
Mice [3]; IV, liver, DMG-PEG2000:DSPC:Chol:compound 1.00:11.50:27.50:60.00, N/P 30, Fluc-mRNA
  IVIS: 7.32E+06
Mice [3]; IV, lung, DMG-PEG2000:DOPE:Chol:compound 1.40:11.15:38.95:48.50, N/P 30
  % of organ targeting: 98.01%
Mice [3]; IV, lung, DMG-PEG2000:DOPE:Chol:compound 1.40:11.15:38.95:48.50, N/P 30, Fluc-mRNA
  IVIS: 3.10E+08
Mice [3]; IV, lung, DMG-PEG2000:DSPC:Chol:compound 1.00:11.50:27.50:60.00, N/P 30
  % of organ targeting: 98.90%
Mice [3]; IV, lung, DMG-PEG2000:DSPC:Chol:compound 1.00:11.50:27.50:60.00, N/P 30, Fluc-mRNA
  IVIS: 1.28E+09
Mice [3]; IV, spleen, DMG-PEG2000:DOPE:Chol:compound 1.40:11.15:38.95:48.50, N/P 30
  % of organ targeting: 1.16%
Mice [3]; IV, spleen, DMG-PEG2000:DOPE:Chol:compound 1.40:11.15:38.95:48.50, N/P 30, Fluc-mRNA
  IVIS: 3.66E+06
Mice [3]; IV, spleen, DMG-PEG2000:DSPC:Chol:compound 1.00:11.50:27.50:60.00, N/P 30
  % of organ targeting: 0.54%
Mice [3]; IV, spleen, DMG-PEG2000:DSPC:Chol:compound 1.00:11.50:27.50:60.00, N/P 30, Fluc-mRNA
  IVIS: 6.96E+06
Mice [4]; liver
  % of organ targeting: 0.87%
Mice [4]; lung
  % of organ targeting: 98.45%
Mice [4]; spleen
  % of organ targeting: 0.69%

## CCCCCCCCCCCCNC(=O)C(O)CN(CCCN(CCO)CCCN(CC(O)C(=O)NCCCCCCCCCCCC)CC(O)C(=O)NCCCCCCCCCCCC)CC(O)C(=O)NCCCCCCCCCCCC (stereo not shown) [Compound L0281]
[1]; [8]
  PDI: 0.13 ± 0.01
  Particle size: 118.73 ± 0.90 nm
[1]; [9]
  PDI: 0.11 ± 0.01
  Particle size: 104.43 ± 0.96 nm
[1]; [10]
  PDI: 0.14
  Particle size (nm): 138.90 nm
[1]; [7]
  PDI: 0.19
  Particle size (nm): 152.1 nm
[2]; [10]
  Zeta potential (mV): 14.67 mV
[2]; [7]
  Zeta potential (mV): 16.27 mV
Mice [3]; DMG-PEG2000:DSPC:Chol:Lipid 1.40:11.15:38.95:48.50, N/P 30, IM, whole body scan
  IVIS: 1.38 × 10^6
Mice [3]; DMG-PEG2000:DSPC:Chol:Lipid 1.40:11.15:38.95:48.50, N/P 30, IV, body (whole body scan)
  IVIS: 6.41 × 10^7
Mice [3]; [11]
  % of organ targeting: 1.91%
  IVIS: 3.17 × 10^6
Mice [3]; [12]
  % of organ targeting: 93.34%
  IVIS: 1.55 × 10^8
Mice [3]; [13]
  % of organ targeting: 4.75%
  IVIS: 7.89 × 10^6
Mice [3]; DMG-PEG2000:DSPC:Chol:Lipid 4.00:8.00:58.00:30.00, N/P 36, IV, body
  IVIS: 7.07 × 10^7
Mice [3]; [14]
  % of organ targeting: 21.21%
  IVIS: 1.28 × 10^7
Mice [3]; [15]
  % of organ targeting: 1.08%
  IVIS: 6.52 × 10^5
Mice [3]; [16]
  % of organ targeting: 77.71%
  IVIS: 4.68 × 10^7
Mice [3]; IV, body, DMG-PEG2000:DSPC:Chol:compound 1.00:10.00:33.00:56.00, N/P 48, Fluc-mRNA
  IVIS: 4.66E+08
Mice [3]; IV, liver, DMG-PEG2000:DSPC:Chol:compound 1.00:10.00:33.00:56.00, N/P 48
  % of organ targeting: 0.73%
Mice [3]; IV, liver, DMG-PEG2000:DSPC:Chol:compound 1.00:10.00:33.00:56.00, N/P 48, Fluc-mRNA
  IVIS: 7.58E+06
Mice [3]; IV, lung, DMG-PEG2000:DSPC:Chol:compound 1.00:10.00:33.00:56.00, N/P 48
  % of organ targeting: 97.70%
Mice [3]; IV, lung, DMG-PEG2000:DSPC:Chol:compound 1.00:10.00:33.00:56.00, N/P 48, Fluc-mRNA
  IVIS: 1.02E+09
Mice [3]; IV, spleen, DMG-PEG2000:DSPC:Chol:compound 1.00:10.00:33.00:56.00, N/P 48
  % of organ targeting: 1.57%
Mice [3]; IV, spleen, DMG-PEG2000:DSPC:Chol:compound 1.00:10.00:33.00:56.00, N/P 48, Fluc-mRNA
  IVIS: 1.64E+07
Mice [3]; certain formulations, Table 2
  in vivo delivery efficiency as compared to the benchmark compound SM102: superior in vivo delivery efficiency
  tissue-targeting specificity (lung vs spleen depending on molar percentage of compound): strong tissue-targeting specificity
Mice [4]; liver
  % of organ targeting: 0.74%
Mice [4]; lung
  % of organ targeting: 96.58%
Mice [4]; spleen
  % of organ targeting: 2.68%

## CCCCCCC(CCCCCC)C(=O)OCCCCCCOC(=O)C(O)CN(CCCN(C)CCCN(CC(O)C(=O)OCCCCCCOC(=O)C(CCCCCC)CCCCCC)CC(O)C(=O)OCCCCCCOC(=O)C(CCCCCC)CCCCCC)CC(O)C(=O)OCCCCCCOC(=O)C(CCCCCC)CCCCCC (stereo not shown) [Compound L0293]
[1]; [17]
  PDI: 0.10
  Particle size (nm): 108.93 nm
[1]; [18]
  PDI: 0.15
  Particle size (nm): 106.57 nm
[1]; [19]
  PDI: 0.10
  Particle size (nm): 89.30 nm
[2]; [18]
  Zeta potential (mV): 11.37 mV
[2]; [19]
  Zeta potential (mV): 9.98 mV
Mice [3]; IM, N/P 30, formulation cells blank (line above: DMG-PEG2000:DSPC:Chol:compound 1.00:10.00:33.00:56.00), Fluc-mRNA
  IVIS: 3.61E+07
Mice [3]; IV, body, DMG-PEG2000:DSPC:Chol:compound 1.00:10.00:33.00:56.00, N/P 42, Fluc-mRNA
  IVIS: 3.11E+08
Mice [3]; IV, liver, DMG-PEG2000:DSPC:Chol:compound 1.00:10.00:33.00:56.00, N/P 42
  % of organ targeting: 18.15%
Mice [3]; IV, liver, DMG-PEG2000:DSPC:Chol:compound 1.00:10.00:33.00:56.00, N/P 42, Fluc-mRNA
  IVIS: 5.63E+07
Mice [3]; IV, lung, DMG-PEG2000:DSPC:Chol:compound 1.00:10.00:33.00:56.00, N/P 42
  % of organ targeting: 3.34%
Mice [3]; IV, lung, DMG-PEG2000:DSPC:Chol:compound 1.00:10.00:33.00:56.00, N/P 42, Fluc-mRNA
  IVIS: 1.03E+07
Mice [3]; IV, spleen, DMG-PEG2000:DSPC:Chol:compound 1.00:10.00:33.00:56.00, N/P 42
  % of organ targeting: 78.51%
Mice [3]; IV, spleen, DMG-PEG2000:DSPC:Chol:compound 1.00:10.00:33.00:56.00, N/P 42, Fluc-mRNA
  IVIS: 2.43E+08
Mice [4]; IM, organ not given
  IVIS: 1.02E+08
